The results in this text go back to US20250101038A1, “COMPOUNDS” (priority 2021, published 2025).

SMILES strings stand for the structures. Where two headings read alike, the source gives them in different places. Bounds are passed on as bounds.

In experiment [1] the target is T1, 5-HT2A receptor (Homo sapiens, UniProt P28223).
T1 construct: host or cells: HEK293
As to the kind of experiment: FLIPR Ca2+ flux functional assay, 5-HT2A. In kind it is cell-based. On the procedure: Activity at 5-HT2A, 5-HT2B and 5-HT2C receptors was determined using a FLIPR Ca^2+ flux assay at WuXi AppTec Co. Ltd. (Hong Kong) Discovery Biology Unit according to their standard protocols. Briefly, stably transfected cells expressing the receptor of interest (HEK293 for 5-HT2A and 5-HT2C; CHO-K1 for 5-HT2B) were grown and plated in a 384 well plate and incubated at 37° C. and 5% CO2 overnight. A 250 mM stock solution of probenecid in FLIPR calcium assay buffer (10 mL) was freshly prepared and combined with a fluorescent dye (Fluo-4 Direct) to give a final assay concentration of 2.5 mM. Reference compounds were 4-fold serially diluted and the screening compounds were 3-fold serially diluted in 100% DMSO for 10 points using Agilent Bravo, and 750 nL was added to a 384 well compound plate using Echo along with 30 μL assay buffer. The fluorescent dye was then added to the assay plate along with assay buffer to a final volume of […]. The cell plate was incubated for 50 min at 37° C. and 5% CO2 and placed into the FLIPR Tetra along with the compound plate. 10 μL of references and compounds were then transferred from the compound plate into the cell plate and the fluorescent signal was read.

For experiment [2], the target named is T2, 5-HT2B receptor (Homo sapiens, UniProt P41595).
T2 construct: host or cells: CHO-K1
In words: cell-based.

In experiment [3] the target is T3, 5-HT2C receptor (Homo sapiens, UniProt P28335).
T3 construct: host or cells: HEK293
T3 sequence (P28335 33-458): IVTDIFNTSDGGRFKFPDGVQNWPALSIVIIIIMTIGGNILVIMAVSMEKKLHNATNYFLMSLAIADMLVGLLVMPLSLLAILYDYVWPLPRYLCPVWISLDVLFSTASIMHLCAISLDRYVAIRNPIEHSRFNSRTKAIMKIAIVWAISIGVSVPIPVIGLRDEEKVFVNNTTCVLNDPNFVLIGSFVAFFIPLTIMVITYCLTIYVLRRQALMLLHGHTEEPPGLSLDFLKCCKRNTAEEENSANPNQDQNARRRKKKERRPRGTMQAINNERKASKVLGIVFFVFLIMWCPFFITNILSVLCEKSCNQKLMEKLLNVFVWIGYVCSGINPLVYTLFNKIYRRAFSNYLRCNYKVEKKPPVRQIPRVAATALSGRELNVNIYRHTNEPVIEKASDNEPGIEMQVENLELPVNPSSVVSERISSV
As to the kind of experiment: cell-based.

The mark [4] stands for this setting: agonist activity, Ca2+ flux, HEK293 cells.
The mark [5] stands for this setting: agonist activity, Ca2+ flux, HEK293 cells, read-out: 5-HT2A EC50.
Setting [6] is: agonist activity, Ca2+ flux, CHO-K1 cells.
[7] abbreviates: agonist activity, Ca2+ flux, CHO-K1 cells, read-out: 5-HT2B EC50.
Setting [8] is: agonist activity, Ca2+ flux, HEK293 cells, read-out: 5-HT2C EC50.

T1 sequence (P28223 whole entry): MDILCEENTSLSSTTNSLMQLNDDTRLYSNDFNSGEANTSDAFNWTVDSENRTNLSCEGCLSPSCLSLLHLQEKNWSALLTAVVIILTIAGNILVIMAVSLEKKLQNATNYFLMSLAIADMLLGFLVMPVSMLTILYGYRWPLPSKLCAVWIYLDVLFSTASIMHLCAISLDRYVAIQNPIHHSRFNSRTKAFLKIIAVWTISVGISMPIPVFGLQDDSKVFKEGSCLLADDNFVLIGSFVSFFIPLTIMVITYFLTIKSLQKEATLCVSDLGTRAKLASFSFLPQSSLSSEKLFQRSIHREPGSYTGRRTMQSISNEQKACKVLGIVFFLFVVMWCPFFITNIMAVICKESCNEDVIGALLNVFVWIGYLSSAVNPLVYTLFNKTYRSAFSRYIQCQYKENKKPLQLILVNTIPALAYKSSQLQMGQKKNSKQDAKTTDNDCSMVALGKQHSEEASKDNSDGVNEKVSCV
T2 sequence (P41595 whole entry): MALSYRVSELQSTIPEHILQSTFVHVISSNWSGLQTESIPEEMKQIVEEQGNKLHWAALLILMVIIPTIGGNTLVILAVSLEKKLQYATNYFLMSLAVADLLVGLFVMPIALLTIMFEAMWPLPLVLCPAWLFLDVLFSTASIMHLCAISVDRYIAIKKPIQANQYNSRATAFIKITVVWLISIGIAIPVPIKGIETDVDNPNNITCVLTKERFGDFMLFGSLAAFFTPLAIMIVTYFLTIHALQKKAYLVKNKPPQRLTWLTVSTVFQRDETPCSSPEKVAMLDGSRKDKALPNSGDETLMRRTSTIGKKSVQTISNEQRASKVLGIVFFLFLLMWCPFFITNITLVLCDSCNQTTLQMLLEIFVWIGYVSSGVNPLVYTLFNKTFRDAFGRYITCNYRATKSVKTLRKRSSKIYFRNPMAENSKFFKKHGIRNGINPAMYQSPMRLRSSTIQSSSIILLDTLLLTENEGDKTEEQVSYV

`Cc1ccc2[nH]cc(CCN(C)C(C)C)c2c1O` [Example P-66, 3-(2-(isopropyl(methyl)amino)ethyl)-5-methyl-1H-indol-4-ol]: the Emax in experiment [1] (setting [4]) was determined as 94.7%; in experiment [2] (setting [6]), 2.07%; in experiment [3] (setting [4]) it was 50.3%. Also, the values for the EC50 in experiment [1] (setting [5]), in experiment [2] (setting [7]) and in experiment [3] (setting [8]) were 91.9 nM, at least 10000 nM and 391 nM, respectively.

As for `CCCN(CC)CCc1c[nH]c2cc(C)c(OC)cc12` [Example P-46, N-ethyl-N-(2-(5-methoxy-6-methyl-1H-indol-3-yl)ethyl)propan-1-amine], in experiment [1] (setting [4]), the “5-HT2A Emax” value is listed as 86.81%. For the same compound, the EC50 in experiment [1] (setting [5]) worked out at 33.3 nM; in experiment [2] (setting [7]), 524 nM; in experiment [3] (setting [8]), 778 nM. Moreover, the “5-HT2B Emax” value in experiment [2] (setting [6]) is 37.67%. In addition, the “5-HT2C Emax” value in experiment [3] (setting [4]) turned out to be 82.79%.

Consider `CCN(CC)CCc1c[nH]c2c(C)ccc(OC)c12` [Example P-82, N,N-diethyl-2-(4-methoxy-7-methyl-1H-indol-3-yl)ethan-1-amine], for which the Emax in experiment [1] (setting [4]) came to 42.4%; in experiment [2] (setting [6]), 0.89%; in experiment [3] (setting [4]), 76.7%. The values for the concentration for a half-maximal effect (EC50) in experiment [1] (setting [5]), in experiment [2] (setting [7]) and in experiment [3] (setting [8]) were 283 nM, over 10000 nM and 417 nM, respectively.

As for `CCN(C)CCc1c[nH]c2c(F)cc(OC)cc12` [Example P-115, N-ethyl-2-(7-fluoro-5-methoxy-1H-indol-3-yl)-N-methylethan-1-amine], the Emax in experiment [1] (setting [4]) was determined as 85.6%; in experiment [2] (setting [6]) it was 16.4%; in experiment [3] (setting [4]), 81.7%.

Consider `Cc1nc2c(ccc3[nH]cc(CCN(C)C)c32)o1` [Example P-131, N,N-dimethyl-2-(2-methyl-6H-oxazolo[4,5-e]indol-8-yl)ethan-1-amine], for which the EC50 in experiment [1] is 10.6 nM; in experiment [2] it was over 10000 nM; in experiment [3] it was 15.8 nM. Also, the Emax in experiment [1] (setting [4]) stood at 97.2%; in experiment [2] (setting [6]), 3.93%; in experiment [3] (setting [4]), 90.1%.

As to `CCN(C)CCc1c[nH]c2ccc3ocnc3c12` [Example P-127, N-ethyl-N-methyl-2-(6H-oxazolo[4,5-e]indol-8-yl)ethan-1-amine], the results for the EC50 in experiment [1], in experiment [2] and in experiment [3] were 12 nM, over 10000 nM and 30.7 nM, respectively. The Emax in experiment [1] (setting [4]) amounted to 54%; in experiment [2] (setting [6]), 10.5%; in experiment [3] (setting [4]), 70.5%.

As for `COc1ccc(C)c2[nH]cc(CCN(C)C)c12` [Example P-13, 2-(4-methoxy-7-methyl-1H-indol-3-yl)-N,N-dimethylethan-1-amine], the Emax was 36.1% in experiment [1] (setting [4]), 0.67% in experiment [2] (setting [6]) and 69.5% in experiment [3] (setting [4]). Moreover, the EC50 is 107 nM in experiment [1] (setting [5]), over 10000 nM in experiment [2] (setting [7]) and 56 nM in experiment [3] (setting [8]).

`COc1ccc(C)c2[nH]cc(CCN(C(C)C)C(C)C)c12` [Example P-83, N-isopropyl-N-(2-(4-methoxy-7-methyl-1H-indol-3-yl)ethyl)propan-2-amine]: the figures for the Emax in experiment [1] (setting [4]), in experiment [2] (setting [6]) and in experiment [3] (setting [4]) were 79.2%, 30% and 66.7%, respectively. The results for the EC50 in experiment [1] (setting [5]), in experiment [2] (setting [7]) and in experiment [3] (setting [8]) were 619 nM, over 10000 nM and 1620 nM, respectively.

On to `CCN(C)CCc1c[nH]c2ccc(C)c(OC)c12` [Example P-59, N-ethyl-2-(4-methoxy-5-methyl-1H-indol-3-yl)-N-methylethan-1-amine], for which the Emax amounted to 78% in experiment [1] (setting [4]), 68.1% in experiment [2] (setting [6]) and 90.5% in experiment [3] (setting [4]). For the same compound, the EC50 in experiment [1] (setting [5]) is 34.6 nM; in experiment [2] (setting [7]), 4710 nM; in experiment [3] (setting [8]), 43.8 nM.

In the case of `CCCN(CCC)CCc1c[nH]c2ccc(C)c(O)c12` [Example P-68, 3-(2-(dipropylamino)ethyl)-5-methyl-1H-indol-4-ol], the Emax in experiment [1] (setting [4]) was found to be 102%; in experiment [2] (setting [6]), 64.3%; in experiment [3] (setting [4]) it was 78%. Also, the EC50 in experiment [1] (setting [5]) is 148 nM; in experiment [2] (setting [7]) it was at least 10000 nM; in experiment [3] (setting [8]) it was 871 nM.

On to `COc1ccc2[nH]cc(CCN(C)C)c2c1C` [Example P-6, 2-(5-methoxy-4-methyl-1H-indol-3-yl)-N,N-dimethylethan-1-amine], for which the Emax came to 64.1% in experiment [1] (setting [4]), 11.3% in experiment [2] (setting [6]) and 73.6% in experiment [3] (setting [4]). Moreover, the figures for the concentration giving a half-maximal response (EC50) in experiment [1] (setting [5]), in experiment [2] (setting [7]) and in experiment [3] (setting [8]) were 124 nM, over 10000 nM and 303 nM, respectively.

For the compound `CC(C)N(C)CCc1c[nH]c2cc(F)cc(F)c12` [Example P-149, N-(2-(4,6-difluoro-1H-indol-3-yl)ethyl)-N-methylpropan-2-amine], the figures for the Emax in experiment [1] (setting [4]), in experiment [2] (setting [6]) and in experiment [3] (setting [4]) were 66.8%, 30.1% and 30.1%, respectively. In addition, the EC50 in experiment [1] (setting [5]) was 52.4 nM; in experiment [2] (setting [7]), at least 10000 nM.

With `CCN(CC)CCc1c[nH]c2ccc(F)c(F)c12` [Example P-145, 2-(4,5-difluoro-1H-indol-3-yl)-N,N-diethylethan-1-amine], the Emax stood at 98.5% in experiment [1] (setting [4]), 51.5% in experiment [2] (setting [6]) and 72.3% in experiment [3] (setting [4]). In addition, the concentration giving a half-maximal response (EC50) amounted to 10.6 nM in experiment [1] (setting [5]), 23.3 nM in experiment [2] (setting [7]) and 102 nM in experiment [3] (setting [8]).

Consider `CCN(CCc1c[nH]c2cc(F)cc(OC)c12)C(C)C` [Example P-99, N-ethyl-N-(2-(6-fluoro-4-methoxy-1H-indol-3-yl)ethyl)propan-2-amine], for which the results for the Emax in experiment [1] (setting [4]), in experiment [2] (setting [6]) and in experiment [3] (setting [4]) were 81.4%, 116% and 79.3%, respectively. Besides, the EC50 was 30.7 nM in experiment [1] (setting [5]), 913 nM in experiment [2] (setting [7]) and 755 nM in experiment [3] (setting [8]).

Regarding `CC(C)N(CCc1c[nH]c2ccc(F)c(F)c12)C(C)C` [Example P-146, N-(2-(4,5-difluoro-1H-indol-3-yl)ethyl)-N-isopropylpropan-2-amine], the results for the Emax in experiment [1] (setting [4]), in experiment [2] (setting [6]) and in experiment [3] (setting [4]) were 98.4%, 155% and 93.1%, respectively. In addition, the values for the EC50 in experiment [1] (setting [5]), in experiment [2] (setting [7]) and in experiment [3] (setting [8]) were 10.1 nM, 21.4 nM and 25.4 nM, respectively.

With `CCCN(CCC)CCc1c[nH]c2c(C)ccc(O)c12` [Example P-89, 3-(2-(dipropylamino)ethyl)-7-methyl-1H-indol-4-ol], the Emax in experiment [1] (setting [4]) amounted to 118%; in experiment [2] (setting [6]) it was 6.63%; in experiment [3] (setting [4]), 54.7%. For the same compound, the EC50 in experiment [1] (setting [5]) was 48.6 nM; in experiment [2] (setting [7]), at least 10000 nM; in experiment [3] (setting [8]) it was 889 nM.

As to `CCN(CC)CCc1c[nH]c2ccc(F)c(OC)c12` [Example P-94, N,N-diethyl-2-(5-fluoro-4-methoxy-1H-indol-3-yl)ethan-1-amine], the figures for the Emax in experiment [1] (setting [4]), in experiment [2] (setting [6]) and in experiment [3] (setting [4]) were 98.1%, 47.4% and 58%, respectively. For the same compound, the results for the concentration giving a half-maximal response (EC50) in experiment [1] (setting [5]), in experiment [2] (setting [7]) and in experiment [3] (setting [8]) were 11.2 nM, 94.2 nM and 131 nM, respectively.

As for `CCN(CC)CCc1c[nH]c2c(C)ccc(O)c12` [Example P-88, 3-(2-(diethylamino)ethyl)-7-methyl-1H-indol-4-ol], the Emax in experiment [1] (setting [4]) was 61.1%; in experiment [2] (setting [6]), -0.07%; in experiment [3] (setting [4]), 25.4%. The EC50 in experiment [1] (setting [5]) was 189 nM; in experiment [2] (setting [7]), at least 10000 nM; in experiment [3] (setting [8]), 1300 nM.

Regarding `CCN(CC)CCc1c[nH]c2c(F)ccc(OC)c12` [Example P-104, N,N-diethyl-2-(7-fluoro-4-methoxy-1H-indol-3-yl)ethan-1-amine], the Emax in experiment [1] (setting [4]) was determined as 77.5%; in experiment [2] (setting [6]) it was 13.1%; in experiment [3] (setting [4]), 52.5%. Further, the figures for the EC50 in experiment [1] (setting [5]), in experiment [2] (setting [7]) and in experiment [3] (setting [8]) were 28.3 nM, over 10000 nM and 8180 nM, respectively.

`COc1c(F)ccc2[nH]cc(CCN(C)C(C)C)c12` [Example P-93, N-(2-(5-fluoro-4-methoxy-1H-indol-3-yl)ethyl)-N-methylpropan-2-amine]: the Emax in experiment [1] (setting [4]) stood at 95.3%; in experiment [2] (setting [6]), 51.5%; in experiment [3] (setting [4]), 85.1%. The EC50 in experiment [1] (setting [5]) worked out at 7.25 nM; in experiment [2] (setting [7]), 24.8 nM; in experiment [3] (setting [8]) it was 45.2 nM.

For the compound `CCN(C)CCc1c[nH]c2c(C)ccc(OC)c12` [Example P-80, N-ethyl-2-(4-methoxy-7-methyl-1H-indol-3-yl)-N-methylethan-1-amine], the Emax came out at 30% in experiment [1] (setting [4]), 0.74% in experiment [2] (setting [6]) and 66.7% in experiment [3] (setting [4]). The EC50 was 113 nM in experiment [1] (setting [5]), over 10000 nM in experiment [2] (setting [7]) and 140 nM in experiment [3] (setting [8]).
